From patent US9023882B2, “5-membered nitrogen containing heterocyclic derivatives and pharmaceutical compositions comprising the same” (Kissei Pharmaceutical Co., Ltd., priority 2007, dated 2015)

Molecular target: Xanthine oxidase (from bovine milk, Sigma) (Bos taurus (Bovine), UniProt P80457)
Assay: Xanthine oxidase inhibitory activity
Assay type: biochemical
Details: 100 μM xanthine final, absorbance at 290 nm
Description: (1) Preparation of Test Compounds
Test compounds were dissolved in DMSO (Wako) at 40 mM concentration and then diluted to intended concentrations with phosphate-buffered saline (PBS).
(2) Method for Measurement
Xanthine oxidase (from bovine milk, Sigma) was prepared with phosphate-buffered saline (PBS) at 0.02 units/mL, and then the solution was added to 96 well plates at 50 μL/well. In addition, test compounds diluted with PBS were added at 50 μL/well. Xanthine (Wako) at 200 μM prepared with PBS was added at 100 μL/well, and the reaction was conducted for 10 minutes at room temperature. Absorbance at 290 nm was measured using a microplate reader SpectraMax Plus 384 (Molecular device). The absorbance under a condition without xanthine is 0%, and control without test compounds is 100%. Fifty % inhibitory concentration of a test compound (IC50) was calculated (Tables 91 to 92). Ex. No in the table indicates Example number.

Chain of Xanthine oxidase (from bovine milk, Sigma) (P80457 whole entry): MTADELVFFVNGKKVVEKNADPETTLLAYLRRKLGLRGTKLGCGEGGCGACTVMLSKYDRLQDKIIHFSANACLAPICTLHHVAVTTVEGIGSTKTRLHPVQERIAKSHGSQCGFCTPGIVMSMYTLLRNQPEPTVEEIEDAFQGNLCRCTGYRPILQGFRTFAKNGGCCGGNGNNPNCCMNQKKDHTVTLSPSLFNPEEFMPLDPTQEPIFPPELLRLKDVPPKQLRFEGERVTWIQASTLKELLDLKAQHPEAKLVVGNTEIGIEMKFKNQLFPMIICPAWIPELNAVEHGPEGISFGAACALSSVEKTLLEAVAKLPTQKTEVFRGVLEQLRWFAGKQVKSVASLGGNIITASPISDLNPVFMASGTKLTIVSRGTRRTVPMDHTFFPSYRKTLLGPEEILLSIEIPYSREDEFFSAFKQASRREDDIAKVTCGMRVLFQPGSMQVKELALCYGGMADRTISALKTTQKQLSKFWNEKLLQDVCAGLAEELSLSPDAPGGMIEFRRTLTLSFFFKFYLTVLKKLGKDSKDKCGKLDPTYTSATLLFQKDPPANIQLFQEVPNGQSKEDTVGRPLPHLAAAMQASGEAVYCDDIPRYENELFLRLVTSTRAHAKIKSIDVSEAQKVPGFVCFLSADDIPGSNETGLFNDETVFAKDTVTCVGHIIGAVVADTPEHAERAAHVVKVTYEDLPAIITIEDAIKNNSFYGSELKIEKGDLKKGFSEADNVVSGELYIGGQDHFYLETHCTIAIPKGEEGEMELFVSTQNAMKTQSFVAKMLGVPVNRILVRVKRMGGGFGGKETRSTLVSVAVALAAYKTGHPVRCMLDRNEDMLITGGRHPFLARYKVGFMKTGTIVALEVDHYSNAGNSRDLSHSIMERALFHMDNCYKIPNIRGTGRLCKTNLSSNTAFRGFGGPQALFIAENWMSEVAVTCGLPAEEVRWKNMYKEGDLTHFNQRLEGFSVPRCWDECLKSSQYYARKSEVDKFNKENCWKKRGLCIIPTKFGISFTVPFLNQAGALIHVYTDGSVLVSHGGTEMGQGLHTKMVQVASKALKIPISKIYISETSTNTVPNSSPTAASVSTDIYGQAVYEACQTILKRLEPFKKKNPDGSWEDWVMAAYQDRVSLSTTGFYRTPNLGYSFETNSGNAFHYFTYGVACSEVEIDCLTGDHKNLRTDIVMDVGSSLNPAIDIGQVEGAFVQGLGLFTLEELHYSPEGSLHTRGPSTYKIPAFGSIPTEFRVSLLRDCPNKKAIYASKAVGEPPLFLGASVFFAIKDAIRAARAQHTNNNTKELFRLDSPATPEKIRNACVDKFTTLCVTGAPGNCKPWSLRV

SMILES	IC50 [nM]
COc1ccc(-c2cn(-c3ccc(C(=O)O)c(O)c3)cc2C#N)c(C)c1 [Example 276]	7.7
N#Cc1cn(-c2ccc(C(=O)O)c(O)c2)cc1-c1cc(F)ccc1F [Example 277]	10.1
N#Cc1cn(-c2ccc(C(=O)O)c(O)c2)cc1-c1cccc(Cl)c1 [Example 278]	49.1
COc1cccc(-c2cn(-c3ccc(C(=O)O)c(O)c3)cc2C#N)c1 [Example 279]	8.4
Cc1cccc(-c2cn(-c3ccc(C(=O)O)c(O)c3)cc2C#N)c1 [Example 280]	15.6
N#Cc1cn(-c2ccc(C(=O)O)c(O)c2)cc1-c1cccc(C(F)(F)F)c1 [Example 281]	41.2
COc1cn(-c2ccc(C(=O)O)c(O)c2)cc1C#N [Example 282]	5.3
COc1ccc(-c2cn(-c3ccc(C(=O)O)c(O)c3)cc2C#N)c(F)c1 [Example 283]	6.2
COc1ccc(F)c(-c2cn(-c3ccc(C(=O)O)c(O)c3)cc2C#N)c1 [Example 284]	9.3
COc1ccc(-c2cn(-c3ccc(C(=O)O)c(O)c3)cc2C#N)cc1OC [Example 285]	3.9
COc1ccc2ccccc2c1-c1cn(-c2ccc(C(=O)O)c(O)c2)cc1C#N [Example 286]	27.5
N#Cc1cn(-c2ccc(C(=O)O)c(O)c2)cc1CCc1ccccc1 [Example 287]	5.8
N#Cc1cn(-c2ccc(C(=O)O)c(O)c2)cc1/C=C/c1ccccc1 [Example 288]	10.4
N#Cc1cn(-c2ccc(C(=O)O)c(O)c2)cc1-c1cc2ccccc2s1 [Example 289]	22.6
N#Cc1cn(-c2ccc(C(=O)O)c(O)c2)cc1-c1cc2ccccc2o1 [Example 290]	27.6
N#Cc1cn(-c2ccc(C(=O)O)c(O)c2)cc1-c1csc2ccccc12 [Example 291]	6.4
Cn1cc(-c2cn(-c3ccc(C(=O)O)c(O)c3)cc2C#N)c2ccccc21 [Example 292]	5.2
COc1ccccc1/C=C/c1cn(-c2ccc(C(=O)O)c(O)c2)cc1C#N [Example 293]	15.9
COc1ccccc1CCc1cn(-c2ccc(C(=O)O)c(O)c2)cc1C#N [Example 294]	11.2
COc1ccc(/C=C/c2cn(-c3ccc(C(=O)O)c(O)c3)cc2C#N)cc1 [Example 295]	28.8
COc1ccc(CCc2cn(-c3ccc(C(=O)O)c(O)c3)cc2C#N)cc1 [Example 296]	5.6
O=C(O)c1ccc(-n2cc(C(=O)O)c(C(F)(F)F)c2)cc1O [Example 297]	18.9
CCOC(=O)c1cn(-c2ccc(C(=O)O)c(O)c2)cc1C(F)(F)F [Example 298]	6.6
N#Cc1cn(-c2ccc(C(=O)O)c(O)c2)cc1C(=O)O [Example 299]	7.9
N#Cc1cn(-c2ccc(C(=O)O)c(O)c2)cc1C(F)(F)F [Example 300]	7.9
N#Cc1cn(-c2ccc(C(=O)O)c(O)c2)nc1-c1ccccc1 [Example 302]	4.9

Same assay, conditions: 0.02 units/mL, xanthine 200 μM, 10 minutes at room temperature, absorbance at 290 nm

SMILES	IC50 [nM]
N#Cc1cn(-c2ccc(C(=O)O)cc2)cc1CCc1ccccc1 [Example 207]	3.8
N#Cc1cn(-c2ccc(C(=O)O)c(F)c2)cc1-c1ccccc1 [Example 208]	5.2
N#Cc1cn(-c2ccc(C(=O)O)cc2)cc1-c1cccc2ccccc12 [Example 209]	7.1
N#Cc1cn(-c2ccc(C(=O)O)cc2)cc1-c1ccc(C(=O)O)cc1 [Example 210]	5.1
N#Cc1cccc(-c2cn(-c3ccc(C(=O)O)cc3)cc2C#N)c1 [Example 211]	4.6
N#Cc1ccc(-c2cn(-c3ccc(C(=O)O)cc3)cc2C#N)cc1 [Example 212]	5.4
CCOCCOc1ccccc1-c1cn(-c2ccc(C(=O)O)cc2)cc1C#N [Example 213]	16.8
CCOCCOc1cccc(-c2cn(-c3ccc(C(=O)O)cc3)cc2C#N)c1 [Example 215]	6.7
N#Cc1cn(-c2ccc(C(=O)O)cc2)cc1-c1cccc(OCCOc2ccccc2)c1 [Example 216]	20.9
N#Cc1cn(-c2ccc(C(=O)O)cc2)cc1-c1cccc(C(=O)O)c1 [Example 217]	5
N#Cc1cn(-c2ccc(C(=O)O)cc2)cc1-c1cccc(CO)c1 [Example 219]	5
COc1cn(-c2ccc(C(=O)O)cc2)cc1C#N [Example 220]	11.1
CCOC(=O)c1cn(-c2ccc(C(=O)O)cc2)cc1C(F)(F)F [Example 221]	45.4
N#Cc1cn(-c2ccc(C(=O)O)cc2)cc1C(=O)c1ccccc1 [Example 224]	10.7
CNC(=O)c1cn(-c2ccc(C(=O)O)cc2)cc1C#N [Example 225]	7.2
CN(C)C(=O)c1cn(-c2ccc(C(=O)O)cc2)cc1C#N [Example 226]	19.7
N#Cc1cn(-c2ccc(C(=O)O)cc2)cc1C(=O)NCc1ccccc1 [Example 227]	3.6
CN(Cc1ccccc1)C(=O)c1cn(-c2ccc(C(=O)O)cc2)cc1C#N [Example 228]	4.6
COCCNC(=O)c1cn(-c2ccc(C(=O)O)cc2)cc1C#N [Example 229]	7.2
COCCN(C)C(=O)c1cn(-c2ccc(C(=O)O)cc2)cc1C#N [Example 230]	13
N#Cc1cn(-c2ccc(C(=O)O)cc2)cc1C(=O)N1CCCCC1 [Example 231]	7

SMILES	IC50 [nM]
N#Cc1cn(-c2ccc(C(=O)O)cc2)cc1C(=O)N1CCOCC1 [Example 232]	26.9
CC(C)COc1cn(-c2ccc(C(=O)O)cc2)cc1C#N [Example 233]	2.3
COCCOc1cn(-c2ccc(C(=O)O)cc2)cc1C#N [Example 234]	4
N#Cc1cn(-c2ccc(C(=O)O)cc2)cc1Cc1ccccc1 [Example 235]	8.6
Cc1cn(-c2ccc(C(=O)O)cc2)cc1C#N [Example 236]	81.2
CCCc1cn(-c2ccc(C(=O)O)cc2)cc1C#N [Example 238]	3.6
CCCc1c(C#N)cn(-c2ccc(C(=O)O)cc2)c1C [Example 239]	15
CCCCc1cn(-c2ccc(C(=O)O)cc2)cc1C#N [Example 240]	3.3
CC(C)Cc1cn(-c2ccc(C(=O)O)cc2)cc1C#N [Example 241]	3.6
Cc1c(CC(C)C)c(C#N)cn1-c1ccc(C(=O)O)cc1 [Example 242]	9
N#Cc1cn(-c2ccc(C(=O)O)cc2)cc1-c1ccco1 [Example 244]	3.6
CCCCCc1cn(-c2ccc(C(=O)O)cc2)cc1C#N [Example 245]	2.8
CCCCCCc1cn(-c2ccc(C(=O)O)cc2)cc1C#N [Example 246]	8.9
CCCCCCCc1cn(-c2ccc(C(=O)O)cc2)cc1C#N [Example 247]	8.9
N#Cc1cn(-c2ccc(C(=O)O)cc2)cc1COCc1ccccc1 [Example 248]	11.9
N#Cc1nn(-c2ccc(C(=O)O)cc2)cc1-c1ccc2c(c1)OCO2 [Example 249]	9.4
N#Cc1cn(-c2ccc(C(=O)O)cc2)cc1-c1ccc2ccccc2c1 [Example 250]	25.6
Cn1cc(-c2cn(-c3ccc(C(=O)O)cc3)cc2C#N)c2ccccc21 [Example 251]	23
CC(C)n1cc(-c2cn(-c3ccc(C(=O)O)cc3)cc2C#N)c2ccccc21 [Example 252]	33.2
N#Cc1cn(-c2ccc(C(=O)O)cc2)cc1-c1csc2ccccc12 [Example 253]	5.4
N#Cc1cn(-c2ccc(C(=O)O)cc2)cc1-c1cccc2c1OC(F)(F)O2 [Example 254]	6.9

SMILES	IC50 [nM]
N#Cc1cn(-c2ccc(C(=O)O)cc2)cc1-c1cccn1-c1ccccc1 [Example 255]	10.1
N#Cc1cn(-c2ccc(C(=O)O)cc2)cc1-c1cccn1Cc1ccccc1 [Example 256]	15.2
CCOc1cn(-c2ccc(C(=O)O)cc2)cc1C#N [Example 257]	4.1
N#Cc1cn(-c2ccc(C(=O)O)cc2)cc1CCc1ccco1 [Example 258]	3.9
N#Cc1cn(-c2ccc(C(=O)O)cc2)cc1CCC1CCCO1 (stereo not drawn) [Example 259]	4.7
CN(C)/C=N/c1nn(-c2ccc(C(=O)O)cc2)cc1C#N [Example 261]	5.3
N#Cc1cn(-c2ccc(C(=O)O)cc2)nc1NC(=O)c1ccccc1 [Example 262]	3.1
N#Cc1cn(-c2ccc(C(=O)O)cc2)nc1NC(=O)Cc1ccccc1 [Example 263]	4.6
N#Cc1cn(-c2ccc(C(=O)O)c(O)c2)cc1-c1cccc(F)c1 [Example 265]	7.3
COc1ccc(-c2cn(-c3ccc(C(=O)O)c(O)c3)cc2C#N)c(OC)c1 [Example 266]	10.4
N#Cc1cn(-c2ccc(C(=O)O)c(O)c2)cc1-c1ccc(F)cc1F [Example 267]	11.6
COc1ccc(-c2cn(-c3ccc(C(=O)O)c(O)c3)cc2C#N)cc1F [Example 268]	13.3
Cc1ccc(-c2cn(-c3ccc(C(=O)O)c(O)c3)cc2C#N)cc1F [Example 269]	23.4
N#Cc1cn(-c2ccc(C(=O)O)c(O)c2)cc1-c1cccc(F)c1F [Example 270]	24.2
N#Cc1cn(-c2ccc(C(=O)O)c(O)c2)cc1-c1cc(F)cc(F)c1 [Example 271]	15.1
Cc1cccc(C)c1-c1cn(-c2ccc(C(=O)O)c(O)c2)cc1C#N [Example 272]	10.1
Cc1ccc(-c2cn(-c3ccc(C(=O)O)c(O)c3)cc2C#N)c(C)c1 [Example 273]	14.6
N#Cc1cn(-c2ccc(C(=O)O)c(O)c2)cc1-c1c(F)cccc1F [Example 274]	5
Cc1c(F)cccc1-c1cn(-c2ccc(C(=O)O)c(O)c2)cc1C#N [Example 275]	7.2
